One compound from patent US20050256134A1, “Use of creatine analogues and creatine kinase modulators for the prevention and treatment of glucose metabolic disorders” (AVICENA GROUP, INC., priority 1995, published 2005) can be followed below.

Each structure is given as a SMILES string. Bounds are passed on as bounds.

This test has as its system female Fisher 344 rats bearing rat mammary adenocarcinoma 13762. The test can be described thus: Effect of creatine compounds on glucose levels in rats bearing tumors (i.v., days 4-8 and 14-18). In kind it is in vivo. To be noted: for Glucose Levels: i.v. days 4-8 and 14-18. On the procedure:
Two creatine compounds, creatine phosphate and cyclocreatine, were injected intravenously into tumor bearing rats, and the level of glucose in the rats was monitored. Beta guanidino propionic acid, also was administered. […] There was no specific reason for using tumor bearing rats, except convenience because the antitumor activity of these compounds also was being studied. The presence of the tumors should not have any effect on the ability of these compounds to regulate glucose levels. The rats carrying the tumors were described by us previously (see, […] et al., Cancer Chemother. Pharmacol, 35: 411-416, 1995). The schedule and dose selected in these experiments was based on prior experience working with this class of compounds as anticancer or antiviral chemotherapeutic agents. The rat mammary adenocarcinoma 13762 was implanted in the female Fisher 344 rats on day zero. The creatine compounds were administered intravenously on days 4-8 and days 14-18. The amounts used were 1 gm/kg of cyclocreatine, 0.93 gm/kg for beta guanidino propionic acid, and 2.32 gm/kg for creatine phosphate. […] Plasma glucose levels were measured at around 11 a.m., by taking a drop of blood from the animals and testing glucose levels using a commercial kit ([…] bG, Boehringer Mannheim). For animals that were treated with drugs, the treatment was around 9 a.m., and bleeding was also at around 11 a.m. To examine more closely what occurred in the above two experiments, the average readings of glucose levels from experiments one and two were taken in the following time intervals post drug treatment: Days 2-3, Days 4-8, Days 8-12, Days 14-18, Day 15 and Days 19-22.

Consider `NC1=NCCN1CC(=O)O` [cyclocreatine], for which the Glucose Levels result runs as follows: (Example 1) “two drops in glucose levels at the time of drug administration”; (Example 2 (repeat)) “induced a drop in the level of glucose after each administration”. For the setting “average of experiments one and two, day 15”, the “drop in glucose level” value is no more than 50%.
